From patent publication US9115142B2, “Heterocycle-substituted piperazino-dihydrothienopyrimidines” (Boehringer Ingelheim International GmbH, priority 2007, dated 2015)
Counter-ions that a name gives are not always drawn.

biological target: PDE4B (Homo sapiens, UniProt Q07343); test: Scintillation Proximity Assay (SPA) of PDE4B enzymatic activity ([H3]-cAMP cleavage); format: biochemical; conditions: test substance 1 μM; one-hour incubation with [H3]-cAMP and PDE4B at 30° C.
Method: The Scintillation Proximity Assay (SPA) (GE Healthcare, No. TRKQ7090) was carried out by using the different affinities of cyclic 3″-5″-adenosinemonophosphate (cAMP, low affinity) and linear 5″-adenosinemonophosphate (AMP, high affinity) for yttrium silicate scintillator beads. The cAMP specific phosphodiesterase (PDE) PDE4B cleaves the 3″-phosphoester bond of tritium-labelled [H3]-cAMP to form [H3]-5″-AMP. This [H3]-AMP accumulates on the scintillator beads because of its higher affinity for them and causes scintillation events (flashes of light) which are measured in a Wallac Microbeta Scintillation Counter.
The experiment starts with a one-hour incubation of [H3]-cAMP with the PDE4B enzyme in assay buffer at 30° C., in each case once with the Example substance to be tested (in a concentration of 1 μM) and once without the Example substance to be tested.
After this incubation, the reaction is stopped by the addition of the beads. The beads have an opportunity to settle in the next 45 minutes, then the measurement is carried out in the Scintillation Counter. If the substance is capable of inhibiting the enzymatic activity of the PDE4B, less [H3]-AMP is produced during the incubation phase and fewer scintillation events can be measured.

PDE4B, sequence (Q07343 whole entry, species assumed): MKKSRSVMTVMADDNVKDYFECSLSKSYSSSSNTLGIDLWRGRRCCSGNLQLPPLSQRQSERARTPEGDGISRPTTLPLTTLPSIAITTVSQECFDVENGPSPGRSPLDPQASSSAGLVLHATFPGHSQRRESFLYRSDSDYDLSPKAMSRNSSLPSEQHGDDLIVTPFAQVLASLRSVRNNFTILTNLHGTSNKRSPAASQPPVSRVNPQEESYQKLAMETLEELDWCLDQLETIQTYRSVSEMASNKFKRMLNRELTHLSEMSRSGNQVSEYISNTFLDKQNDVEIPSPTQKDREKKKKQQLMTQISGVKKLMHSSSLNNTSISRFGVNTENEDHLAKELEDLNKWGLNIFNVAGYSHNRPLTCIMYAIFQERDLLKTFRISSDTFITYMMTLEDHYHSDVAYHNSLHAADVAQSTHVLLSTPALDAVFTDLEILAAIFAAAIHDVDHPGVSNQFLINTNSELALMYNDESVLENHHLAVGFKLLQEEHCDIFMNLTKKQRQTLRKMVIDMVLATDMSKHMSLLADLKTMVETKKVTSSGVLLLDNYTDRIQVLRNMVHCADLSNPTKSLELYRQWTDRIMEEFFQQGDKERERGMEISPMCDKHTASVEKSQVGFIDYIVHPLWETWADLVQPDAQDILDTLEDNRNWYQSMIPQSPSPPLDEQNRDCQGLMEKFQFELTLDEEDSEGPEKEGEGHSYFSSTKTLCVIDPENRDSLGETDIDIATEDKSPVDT

| inhibition at 1 µM [%] | SMILES |
| --- | --- |
| 95 | [O-][S+]1CCc2nc(N3CCN(c4ccc(Cl)nn4)CC3)nc(Nc3cccc(F)c3)c21 (stereo not drawn) [Example 7, {2-[4-(6-chlorpyridazin-3-yl)-piperazin-1-yl]-5-oxo-6,7-dihydro-5H-5λ^4-thieno[3,2-d]pyrimidin-4-yl}-(3-fluorophenyl)-amine] |
| 96 | Cn1c(N2CCN(c3nc4c(c(NC5CCOCC5)n3)[S+]([O-])CC4)CC2)nc2cc(F)ccc21 (stereo not drawn) [Example 87, {2-[4-(5-fluoro-1-methyl-1H-benzoimidazol-2-yl)-piperazin-1-yl]-5-oxo-6,7-dihydro-5H-5λ^4-thieno[3,2-d]pyrimidin-4-yl}-(tetrahydropyran-4-yl)-amine] |
| 94 | CC(C)[C@H](CO)Nc1nc(N2CCN(c3ccnnc3N(C)C)CC2)nc2c1[S+]([O-])CC2 (stereo partly drawn) [Example 36, (R)-2-{2-[4-(3-dimethylaminopyridazin-4-yl)-piperazin-1-yl]-5-oxo-6,7-dihydro-5H-5λ^4-thieno[3,2-d]pyrimidin-4-ylamino}-3-methylbutan-1-ol trifluoroacetate] |

Further lines, the compound ahead of its results:

| SMILES | inhibition at 1 µM [%] |
| --- | --- |
| [O-][S+]1CCc2nc(N3CCN(c4noc5ccccc45)CC3)nc(Nc3cccc(F)c3)c21 (stereo not drawn) [Example 144, [2-(4-benzo[d]isoxazol-3-yl-piperazin-1-yl)-5-oxo-6,7-dihydro-5H-5λ^4-thieno[3,2-d]pyrimidin-4-yl]-(3-fluorophenyl)-amine] | 96 |
| CC(C)[C@H](CO)Nc1nc(N2CCN(c3cc(Cl)nnc3O)CC2)nc2c1[S+]([O-])CC2 (stereo partly drawn) [Example 37] | 90 |
| [O-][S+]1CCc2nc(N3CCN(c4ccnnc4)CC3)nc(Nc3cccc(F)c3)c21 (stereo not drawn) [Example 18, (3-fluorophenyl)-[5-oxo-2-(4-pyridazin-4-yl-piperazin-1-yl) 6,7-dihydro-5H-5λ^4-thieno[3,2-d]pyrimidin-4-yl]-amine] | 96 |
| [O-][S+]1CCc2nc(N3CCN(c4cc(Cl)nnc4O)CC3)nc(Nc3cccc(F)c3)c21 (stereo not drawn) [Example 16, 6-chloro-4-{4-[4-(3-fluorophenylamino)-5-oxo-6,7-dihydro-5H-5λ^4-thieno[3,2-d]pyrimidin-2-yl]-piperazin-1-yl}-pyridazin-3-ol] | 95 |
| [O-][S+]1CCc2nc(N3CCN(c4nc5ccccc5o4)CC3)nc(NC3CCOCC3)c21 (stereo not drawn) [Example 5, [2-(4-benzoxazol-2-yl-piperazin-1-yl)-5-oxo-6,7-dihydro-5H-5λ^4-thieno[3,2-d]pyrimidin-4-yl]-(tetrahydropyran-4-yl)-amine] | 96 |
| [O-][S+]1CCc2nc(N3CCN(c4nc(-c5ccc(F)cc5)cs4)CC3)nc(Nc3cccc(F)c3)c21 (stereo not drawn) [Example 142, (3-fluorophenyl)-(2-{4-[4-(4-fluorophenyl)-thiazol-2-yl]-piperazin-1-yl}-5-oxo-6,7-dihydro-5H-5λ^4-thieno[3,2-d]pyrimidin-4-yl)-amine] | 95 |
